target: Tie-2 (Homo sapiens, UniProt Q02763); assay: Tie-2 tyrosine kinase inhibition (ATP consumption by luciferase/luciferin chemiluminescence or 33P-ATP incorporation into pEY substrate); type: biochemical; details: human enzyme Tie-2; inhibition given as class symbol
Protocol: Tyrosine kinase activity is determined by 1) measurement of kinase-dependent ATP consumption by in the presence of a generic substrate such as polyglutamine, tyrosin (pEY), by luciferase/luciferin-mediated chemiluminescence or; 2) incorporation of radioactive phosphate derived from ^33P-ATP into a generic substrate which has been adsorbed onto the well surface of polystyrene microtiter plates. Phosphorylated substrate products are quantified by scintillation spectrometry.
Inhibition is indicated as IC50 with following key: A=IC50 less than 50 nM, B=IC50 greater than 50 nM, but less than or equal to 1000 nM, C=IC50 greater than 1000 nM, but less than 10,000 nM, and D=IC50 10,000 nM or greater. The abbreviation for human enzyme, Tie-2, is defined as tyrosine kinase with immunoglobulin and EGF repeats.

Sequence of Tie-2 (Q02763 23-1124): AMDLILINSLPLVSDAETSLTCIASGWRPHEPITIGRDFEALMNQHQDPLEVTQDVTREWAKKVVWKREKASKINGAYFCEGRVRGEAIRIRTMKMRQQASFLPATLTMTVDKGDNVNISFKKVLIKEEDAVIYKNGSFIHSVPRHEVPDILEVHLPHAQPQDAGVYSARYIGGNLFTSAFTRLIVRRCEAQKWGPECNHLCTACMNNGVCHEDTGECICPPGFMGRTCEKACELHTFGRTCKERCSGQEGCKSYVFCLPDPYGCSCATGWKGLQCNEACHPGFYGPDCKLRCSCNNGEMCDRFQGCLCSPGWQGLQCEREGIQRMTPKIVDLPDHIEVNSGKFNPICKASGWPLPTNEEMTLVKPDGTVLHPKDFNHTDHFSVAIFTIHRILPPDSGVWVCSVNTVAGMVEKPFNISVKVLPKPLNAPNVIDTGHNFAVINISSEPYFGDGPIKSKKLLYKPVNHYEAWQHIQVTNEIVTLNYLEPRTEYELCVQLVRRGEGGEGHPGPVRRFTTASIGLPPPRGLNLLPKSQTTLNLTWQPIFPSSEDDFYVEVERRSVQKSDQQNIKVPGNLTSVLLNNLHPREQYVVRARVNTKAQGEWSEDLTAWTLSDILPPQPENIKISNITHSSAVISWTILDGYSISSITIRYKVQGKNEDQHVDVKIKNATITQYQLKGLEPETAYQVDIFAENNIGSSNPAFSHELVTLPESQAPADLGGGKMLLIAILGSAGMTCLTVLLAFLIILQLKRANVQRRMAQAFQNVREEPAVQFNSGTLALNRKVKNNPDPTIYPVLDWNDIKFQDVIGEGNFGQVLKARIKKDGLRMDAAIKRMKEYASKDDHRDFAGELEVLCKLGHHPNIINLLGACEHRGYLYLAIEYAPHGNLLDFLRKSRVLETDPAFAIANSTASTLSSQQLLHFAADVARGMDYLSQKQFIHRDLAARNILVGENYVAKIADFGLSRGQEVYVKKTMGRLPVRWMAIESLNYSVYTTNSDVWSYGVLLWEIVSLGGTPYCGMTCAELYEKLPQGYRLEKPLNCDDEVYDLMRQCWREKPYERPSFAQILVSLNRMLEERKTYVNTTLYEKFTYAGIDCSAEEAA

| Compound | IC50 [µM] |
| --- | --- |
| c1ccc2c(NCCN3CCOCC3)nc(-c3ccncc3)nc2c1 [Compound 10, N-(2-morpholin-4-ylethyl)-2-pyridin-4-ylquinazolin-4-amine] | ≥ 10 |
| OC1CCCN(c2nc(-c3ccncc3)nc3ccccc23)C1 (stereo not drawn) [Compound 47, 1-(2-pyridin-4-ylquinazolin-4-yl)piperidin-3-ol] | ≥ 10 |
| OC[C@H]1C[C@@H](Nc2nc(-c3ccccc3)nc3ccccc23)[C@H](O)[C@@H]1O [Compound 30, (1S,2R,3R,5R)-3-(hydroxymethyl)-5-[(2-phenylquinazolin-4-yl)amino]cyclopentane-1,2-diol] | ≥ 10 |
| O[C@@H]1CCC[C@H]1Nc1nc(-c2cccnc2)nc2ccccc12 [Compound 35, (1R,2R)-2-[(2-pyridin-3-ylquinazolin-4-yl)amino]cyclopentanol] | ≥ 10 |
| c1ccc2c(NN3CCCCC3)nc(-c3ccncc3)nc2c1 [Compound 67, N-piperidin-1-yl-2-pyridin-4-ylquinazolin-4-amine] | ≥ 10 |
| C[C@H](CO)Nc1nc(-c2ccncc2)nc2ccccc12 [Compound 41, (2R)-2-[(2-pyridin-4-ylquinazolin-4-yl)amino]propan-1-ol] | ≥ 10 |
| c1ccc(Nc2ccc(Nc3nc(-c4ccncc4)nc4ccccc34)cc2)cc1 [Compound 23, N-phenyl-N′-(2-pyridin-4-ylquinazolin-4-yl)benzene-1,4-diamine] | ≥ 10 |
| OCCN1CCN(Nc2nc(-c3ccncc3)nc3ccccc23)CC1 [Compound 66, 2-{-4-[(2-pyridin-4-ylquinazolin-4-yl)amino]piperazin-1-yl}ethanol] | ≥ 10 |
| CCc1cc(-c2nc(N[C@@H]3c4ccccc4C[C@@H]3O)c3ccccc3n2)ccn1 [Compound 44, (1R,2S)-1-{[2-(2-ethylpyridin-4-yl)quinazolin-4-yl]amino}-2,3-dihydro-1H-inden-2-ol] | ≥ 10 |
| O[C@H]1Cc2ccccc2[C@H]1Nc1nc(-c2ccccc2)nc2ccccc12 [Compound 27, (1R,2S)-1-[(2-phenylquinazolin-4-yl)amino]-2,3-dihydro-1H-inden-2-ol] | ≥ 10 |
| c1ccc2c(NCCN3CCNCC3)nc(-c3ccncc3)nc2c1 [Compound 32, N-(2-piperazin-1-ylethyl)-2-pyridin-4-ylquinazolin-4-amine] | ≥ 10 |
| COc1cc(OC)c(CNc2nc(-c3ccncc3)nc3ccccc23)c(OC)c1 [Compound 20, 2-pyridin-4-yl-N-{[2,4,6-tris(methyloxy)phenyl]methyl}quinazolin-4-amine] | ≥ 10 |
| CN(C)CCNc1nc(-c2ccncc2)nc2ccccc12 [Compound 8, N,N-dimethyl-N′-(2-pyridin-4-ylquinazolin-4-yl)ethane-1,2-diamine] | ≥ 10 |
| c1ccc2c(NC3CCNCC3)nc(-c3ccncc3)nc2c1 [Compound 21, N-piperidin-4-yl-2-pyridin-4-ylquinazolin-4-amine] | ≥ 10 |
| OC[C@@H]1Cc2ccccc2N1c1nc(-c2ccncc2)nc2ccccc12 [Compound 40, [(2S)-1-(2-pyridin-4-ylquinazolin-4-yl)-2,3-dihydro-1H-indol-2-yl]methanol] | ≥ 10 |
| O[C@H]1Cc2ccccc2[C@H]1Nc1nc(-c2ccncc2)nc2ccccc12 [Compound 17, (1R,2S)-1-[(2-pyridin-4-ylquinazolin-4-yl)amino]-2,3-dihydro-1H-inden-2-ol] | ≥ 10 |
| O[C@@H]1CCCC[C@H]1Nc1nc(-c2ccccc2)nc2ccccc12 [Compound 29, (1R,2R)-2-[(2-phenylquinazolin-4-yl)amino]cyclohexanol] | ≥ 10 |
| O[C@@H]1CCC[C@H]1Nc1nc(-c2ccccc2)nc2ccccc12 [Compound 28, (1R,2R)-2-[(2-phenylquinazolin-4-yl)amino]cyclopentanol] | ≥ 10 |
| OCCCNc1nc(-c2ccncc2)nc2ccccc12 [Compound 6, 3-[(2-pyridin-4-ylquinazolin-4-yl)amino]propan-1-ol] | ≥ 10 |
| COc1ncc(-c2nc(N[C@H]3c4ccccc4C[C@H]3O)c3ccccc3n2)c(OC)n1 [Compound 52, (1S,2R)-1-({2-[2,4-bis(methyloxy)pyrimidin-5-yl]quinazolin-4-yl}amino)-2,3-dihydro-1H-inden-2-ol] | ≥ 10 |
| c1ccc2c(N3CCNCC3)nc(-c3ccncc3)nc2c1 [Compound 13, 4-piperazin-1-yl-2-pyridin-4-ylquinazoline] | ≥ 10 |
| O[C@H]1Cc2ccccc2[C@H]1Nc1nc(-c2ccccn2)nc2ccccc12 [Compound 38, (1R,2S)-1-[(2-pyridin-2-ylquinazolin-4-yl)amino]-2,3-dihydro-1H-inden-2-ol] | ≥ 10 |
| O[C@@H]1CCCC[C@H]1Nc1nc(-c2cccnc2)nc2ccccc12 [Compound 36, (1R,2R)-2-[(2-pyridin-3-ylquinazolin-4-yl)amino]cyclohexanol] | ≥ 10 |

Results, then the molecule that gave them:

| IC50 [µM] | Compound |
| --- | --- |
| ≥ 10 | O[C@@H]1Cc2ccccc2[C@@H]1Nc1nc(-c2cnccn2)nc2ccccc12 [Compound 58, (1S,2R)-1-[(2-pyrazin-2-ylquinazolin-4-yl)amino]-2,3-dihydro-1H-inden-2-ol] |
| ≥ 10 | O[C@@H]1Cc2ccccc2[C@@H]1Nc1nc(-c2ccccn2)nc2ccccc12 [Compound 37, (1S,2R)-1-[(2-pyridin-2-ylquinazolin-4-yl)amino]-2,3-dihydro-1H-inden-2-ol] |
| ≥ 10 | OCCNc1nc(-c2ccncc2)nc2ccccc12 [Compound 5, 2-[(2-pyridin-4-ylquinazolin-4-yl)amino]ethanol] |
| 1 to 10 | OC[C@@H](Nc1nc(-c2ccncc2)nc2ccccc12)c1ccccc1 [Compound 55, (2S)-2-phenyl-2-[(2-pyridin-4-ylquinazolin-4-yl)amino]ethanol] |
| 1 to 10 | c1ccc2c(c1)CC[C@H](Nc1nc(-c3ccncc3)nc3ccccc13)C2 [Compound 15, 2-pyridin-4-yl-N-[(2S)-1,2,3,4-tetrahydronaphthalen-2-yl]quinazolin-4-amine] |
| 0.05 to 1 | O[C@@H]1Cc2ccccc2[C@@H]1Nc1nc(-c2ccncc2)nc2cc(C(F)(F)F)ccc12 [Compound 48, (1S,2R)-1-{[2-pyridin-4-yl-7-(trifluoromethyl)quinazolin-4-yl]amino}-2,3-dihydro-1H-inden-2-ol] |
| 1 to 10 | CC(C)Oc1ccc(Nc2nc(-c3ccncc3)nc3ccccc23)cc1 [Compound 25, N-{4-[(1-methylethyl)oxy]phenyl}-2-pyridin-4-ylquinazolin-4-amine] |
| 1 to 10 | OC[C@H](Nc1nc(-c2ccncc2)nc2ccccc12)c1ccccc1 [Compound 56, (2R)-2-phenyl-2-[(2-pyridin-4-ylquinazolin-4-yl)amino]ethanol] |
| < 0.05 | O[C@@H]1Cc2ccccc2[C@@H]1Nc1nc(-c2ccncc2)nc2ccccc12 [Compound 18, (1S,2R)-1-[(2-pyridin-4-ylquinazolin-4-yl)amino]-2,3-dihydro-1H-inden-2-ol] |
| < 0.05 | Cc1ccc2c(N[C@H]3c4ccccc4C[C@H]3O)nc(-c3ccncc3)nc2c1 [Compound 51, (1S,2R)-1-[(7-methyl-2-pyridin-4-ylquinazolin-4-yl)amino]-2,3-dihydro-1H-inden-2-ol] |
| 1 to 10 | Oc1cc2ccccc2cc1Nc1nc(-c2ccncc2)nc2ccccc12 [Compound 24, 3-[(2-pyridin-4-ylquinazolin-4-yl)amino]naphthalen-2-ol] |
| 0.05 to 1 | Nc1nccc(-c2nc(N[C@H]3c4ccccc4C[C@H]3O)c3ccccc3n2)n1 [Compound 63, (1S,2R)-1-{[2-(2-aminopyrimidin-4-yl)quinazolin-4-yl]amino}-2,3-dihydro-1H-inden-2-ol] |
| 1 to 10 | c1ccc2c(NC3CCCCC3)nc(-c3ccncc3)nc2c1 [Compound 1, N-cyclohexyl-2-pyridin-4-ylquinazolin-4-amine] |
| 0.05 to 1 | O[C@@H]1Cc2ccccc2[C@@H]1Nc1ccnc(-c2ccncc2)n1 [Compound 57, (1S,2R)-1-[(2-pyridin-4-ylpyrimidin-4-yl)amino]-2,3-dihydro-1H-inden-2-ol] |
| 0.05 to 1 | c1ccc2c(c1)CC[C@@H](Nc1nc(-c3ccncc3)nc3ccccc13)C2 [Compound 12, 2-pyridin-4-yl-N-[(2R)-1,2,3,4-tetrahydronaphthalen-2-yl]quinazolin-4-amine] |
| 1 to 10 | c1ccc2c(c1)CC[C@H]2Cc1nc(-c2ccncc2)nc2ccccc12 [Compound 16, 4-[(1S)-2,3-dihydro-1H-inden-1-ylmethyl]-2-pyridin-4-ylquinazoline] |
| < 0.05 | O[C@@H]1Cc2ccccc2[C@@H]1Nc1nc(-c2ccncc2)nc2ccc(Cl)cc12 [Compound 31, (1S,2R)-1-[(6-chloro-2-pyridin-4-ylquinazolin-4-yl)amino]-2,3-dihydro-1H-inden-2-ol] |
| 1 to 10 | c1ccc2c(NC3CCCC3)nc(-c3ccncc3)nc2c1 [Compound 3, N-cyclopentyl-2-pyridin-4-ylquinazolin-4-amine] |
| 1 to 10 | OCCN(Cc1ccccc1)c1nc(-c2ccncc2)nc2ccccc12 [Compound 62, 2-[(phenylmethyl)(2-pyridin-4-ylquinazolin-4-yl)amino]ethanol] |
| 1 to 10 | c1ccc2c(NCC3CCCCC3)nc(-c3ccncc3)nc2c1 [Compound 4, N-(cyclohexylmethyl)-2-pyridin-4-ylquinazolin-4-amine] |
| 0.05 to 1 | c1ccc2c(c1)CCC2Nc1nc(-c2ccncc2)nc2ccccc12 (stereo not drawn) [Compound 9, N-(2,3-dihydro-1H-inden-1-yl)-2-pyridin-4-ylquinazolin-4-amine] |
| 0.05 to 1 | COc1cc2nc(-c3ccncc3)nc(N[C@H]3c4ccccc4C[C@H]3O)c2cc1OC [Compound 46, (1S,2R)-1-{[6,7-bis(methyloxy)-2-pyridin-4-ylquinazolin-4-yl]amino}-2,3-dihydro-1H-inden-2-ol] |
